Values quoted from earlier work, collected in patent US9237750B2, “Ornidazole and related compounds for use as herbicides” (RAMOT AT TEL-AVIV UNIVERSITY LTD., priority 2012, dated 2016).

Tested on: ferredoxin-linked NADP+ reduction
Conditions: photosystem II non-operative, ascorbate as electron source, broken spinach chloroplasts, DCPIP; cited from earlier work

Compound: Cc1ncc([N+](=O)[O-])n1CCO [Metronidazole, 1-β-hydroxyethyl-2-methyl-5-nitroimidazole]
- inhibition of ferredoxin-linked NADP+ reduction: potent inhibitor
